Assay results from BindingDB's records for patent US11306098 (Venenum Biodesign, 2022).

What was measured:
[1] = target: T1, Three-prime repair exonuclease 1 (Homo sapiens, UniProt Q9NSU2); experiment: Exonuclease Assay
T1 sequence (Q9NSU2 whole entry): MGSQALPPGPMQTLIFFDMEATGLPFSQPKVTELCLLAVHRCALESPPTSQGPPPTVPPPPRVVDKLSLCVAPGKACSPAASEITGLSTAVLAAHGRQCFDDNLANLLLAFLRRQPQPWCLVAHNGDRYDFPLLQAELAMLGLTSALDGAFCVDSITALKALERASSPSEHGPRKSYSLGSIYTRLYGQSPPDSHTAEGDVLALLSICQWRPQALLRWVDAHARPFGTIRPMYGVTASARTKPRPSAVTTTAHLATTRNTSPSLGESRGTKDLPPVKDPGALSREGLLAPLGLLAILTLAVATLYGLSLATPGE
Method: To evaluate the effect of compounds on TREX1 activity, test compounds were serially diluted (11-point, 3-fold) from 10 mM stock solutions and delivered to 384-well low-volume assay plates in 80 nL DMSO using an acoustic dispenser. Next, 4 μL of human TREX1 (0.5 nM), or murine TREX1 (1 nM), diluted in assay buffer (20 mM Tris pH 7.5, 5 mM MgCl2, 100 μg/mL BSA, 0.002% Triton X-100, 2 mM DTT), was added to the assay plate. After incubating for 30 minutes, 4 μL of labeled DNA oligonucleotide (500 nM) in assay buffer was added to initiate TREX1 exonuclease activity. The reaction was allowed to proceed for 45 minutes at room temperature prior to the addition of 4 μL of 150 mM EDTA to halt TREX1 activity. Assay plates were equilibrated for an additional 30 minutes and read on an EnVision Plate Reader (Perkin Elmer) to measure fluorescence emission at 535 nm following excitation at 485 nm. Fluorescence was plotted as a function of log molar compound concentration and fit to four-parameter dose-response equation to determine compound IC50.

[2] = target: T2, Three-prime repair exonuclease 1 (Mus musculus, UniProt Q91XB0)
T2 sequence (Q91XB0 whole entry): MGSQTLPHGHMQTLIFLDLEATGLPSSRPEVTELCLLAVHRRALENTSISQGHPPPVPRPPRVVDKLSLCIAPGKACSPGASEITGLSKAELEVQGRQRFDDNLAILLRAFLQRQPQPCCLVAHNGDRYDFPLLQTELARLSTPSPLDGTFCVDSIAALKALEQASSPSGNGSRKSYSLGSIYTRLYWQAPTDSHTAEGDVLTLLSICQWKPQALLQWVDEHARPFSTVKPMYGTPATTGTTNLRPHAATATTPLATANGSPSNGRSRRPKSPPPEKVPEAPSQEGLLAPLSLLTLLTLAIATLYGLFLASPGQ

`CC(C)C[C@H](C(=O)NCc1ccc(Cl)c(Cl)c1)N1CCC(CCc2ccccc2)N2C[C@H](N)C[C@H]2C1=O` (some centres undefined) [US11306098, Example 1] gave an IC50 [1] of under 1000 nM and an IC50 [2] of under 1000 nM.

`N[C@@H]1C[C@H]2C(=O)N([C@H](CO)C(=O)NCc3ccc(Cl)c(Cl)c3)CCC(CCc3ccccc3)N2C1` (some centres undefined) [US11306098, Example 3] gave an IC50 [1] of under 1000 nM and an IC50 [2] of under 1000 nM.
